According to patent US20070179143A1 (priority 2003, published 2007):

Experiments:
SK-OV-3 = test: Cytotoxicity test to cancer cell lines (SRB method), SK-OV-3; assay type: cell-based; conditions: Homo sapiens, SK-OV-3, 48 h, read-out: Cytotoxicity ED50 SK-OV-3
HCT-15 = test: Cytotoxicity test to cancer cell lines (SRB method), HCT-15; conditions: Homo sapiens, HCT-15, 48 h, read-out: Cytotoxicity ED50 HCT15
Description: (§1) Cytotoxicity to A549 (Korea Research Institute of Chemical Technology), SK-OV-3 (Korea Research Institute of Chemical Technology), SK-MEL-2 (Korea Research Institute of Chemical Technology), HCT-15 (Korea Research Institute of Chemical Technology) and MCF7 (Korean Cell Line Bank, Seoul National University School of medicine) cells was measured by Sulforhodamin-B (SRB) method (1989, National Cancer Institute (NCI)) which was developed for the measurement of in vitro anticancer activity of a drug. Cells were separated using 0.25% trypsin-EDTA solution, leading to the preparation of a cell suspension by 5×10^318 2×10^4 cells/well. Then, the suspension was distributed into a 96 well plate by 100 μl/well, which was cultured in a 37° C., 5% CO2 incubator for 24 hours. Compounds prepared in examples of the present invention were used as a sample. Precisely, the compound was dissolved in dimethylsulfoxide and diluted with RPMI 1640 medium before being used as a sample. The final concentration of the sample used varied ranging 1 μM˜0.00001 μM. The medium was removed from the 96 well plate and then diluted sample solution was added by 100 μl/well, followed by further culture in a 37° C., 5% CO2 incubator for 48 hours. Tz (time zero) plate was collected from the point of adding the sample. Upon completing the culture, the medium was removed from each well along with Tz plate, then 10% trichloroacetic acid (TCA) was added by 100 μl/well. The plate was left at 4° C. for 1 hour to let cells be fixed on the floor of the plate. After cells were fixed completely, the plate was washed with water 5-6 times to remove the remaining trichloroacetic acid solution completely and moisture was completely dried at room temperature. 0.4% Sulforhodamine-B was dissolved in 1% acetic acid solution to prepare a staining solution. Cells were stained for 30 minutes with a dye added by 100 μl to each well of the completely dried plate. Then, the plate was washed with 1% acetic acid solution 5-6 times to remove sulforhodamine-B remained uncombined with cells. Then, the plate was dried at room temperature. 10 mM Tris solution was added by 100 μ/well thereto to dissolve the dye, and optical density (OD) was measured at 520 nm with a micro plate reader.
(§2) ED50 (concentration that inhibits cancer cell growth 50%, 5.0% effective dose, nM/ml) of the sample to cancer cell was calculated as follows. OD value at the point of beginning the culture with the sample was determined as Tz (time zero) value. OD value of a well to be cultured without the sample was determined as a control value (C). OD value of a well pretreated with the sample was determined as experimental value (T). After calculating Tz, C and T, cytotoxicity of the sample was measured by the below <Mathematical Formula 1>. T≦Tz, (T−Tz)/(C−Tz)×100 T>Tz, (T−Tz)/Tz×10,0 <Mathematical Formula 1>
(§3) ED50, the concentration that can inhibit cancer cell growth by 50%, was calculated by using a regression analysis of lotus program based on the degree of cytotoxicity obtained by the <Mathematical Formula 1>.

SK-MEL-2 = test: Cytotoxicity test to cancer cell lines (SRB method), SK-MEL-2; assay type: cell-based; conditions: Homo sapiens, SK-MEL-2, 48 h, read-out: Cytotoxicity ED50 SK-MEL-2
A549 = test: Cytotoxicity test to cancer cell lines (SRB method), A549; conditions: Homo sapiens, A549, 48 h, read-out: Cytotoxicity ED50 A549
Description: as §1, §2, §3

MCF7 = test: Cytotoxicity test to cancer cell lines (SRB method), MCF7; conditions: read-out: Cytotoxicity ED50 MCF-7, MCF-7, 48 hours
Description: as §1, §2, §3

Compound	EC50 (SK-OV-3) [nM]	EC50 (HCT-15) [nM]	EC50 (SK-MEL-2) [nM]	EC50 (A549) [nM]	EC50 (MCF7) [nM]
COc1cc2c(c(OC)c1OC)-c1ccc(SC)c(=O)cc1[C@@H](NC(=O)c1cccc(COC(=O)c3cccc(CO[N+](=O)[O-])c3)n1)CC2 [Example 27, 3-nitrooxymethyl-benzoicacid-6-[(7S) -1,2,3-trimethoxy-10-methylsulfanyl-9-oxo-5,6,7,9-tetrahydro-benzo[a]heptalen-7-yl-carbamoyl]-pyridine-2-yl-methylester]	16	2	7	5	
COc1cc2c(c(OC)c1OC)-c1ccc(SC)c(=O)cc1[C@@H](NC(=O)c1ccccc1OC(=O)c1cccc(CO[N+](=O)[O-])c1)CC2 [Example 29, 3-nitrooxymethyl-benzoic acid-2-[(7S)-1,2,3-trimethoxy-10-methylsulfanyl-9-oxo-5,6,7,9-tetrahydro-benzo[a]heptalen-7-yl-carbamoyl]-phenylester]	3	0.8	0.9	1.1	
COc1cc2c(c(OC)c1OC)-c1ccc(SC)c(=O)cc1[C@@H](NC(=O)c1cc(CO[N+](=O)[O-])ccc1F)CC2 [Example 17, 2-fluoro-5-nitrooxymethyl-N-[(7S)-1,2,3-trimethoxy-10-methylsulfanyl-9-oxo-5,6,7,9-tetrahydro-benzo[a]heptalen-7-yl]-benzamide]	0.19	0.19	0.17	0.21	0.08
COc1c(OC(C)C)cc2c(c1OC)-c1ccc(SC)c(=O)cc1[C@@H](NC(=O)c1cc(F)cc(CO[N+](=O)[O-])c1)CC2 [Example 14, 3-fluoro-N-[(7S)-3-isopropoxy-1,2-dimethoxy-10-methylsulfanyl-9-oxo-5,6,7,9-tetrahydro-benzo[a]heptalen-7-yl]-5-nitrooxymethyl-benzamide]	30.6	9.9	32.8	28.2	11.2
COc1cc2c(c(OC)c1OC)-c1ccc(SC)c(=O)cc1[C@@H](NC(=O)Cc1cccc(CO[N+](=O)[O-])c1)CC2 [Example 23, 2-(3-nitrooxymethyl-phenyl)-N-[(7S)-1,2,3-trimethoxy-10-methylsulfanyl-9-oxo-5,6,7,9-tetrahydro-benzo[a]heptalen-7-yl]-acetamide]	5.6	3.4	3.5	5.4	3.3
COc1cc2c(c(OC)c1OC)-c1ccc(SC)c(=O)cc1[C@@H](NC(=O)c1ccc(F)c(CO[N+](=O)[O-])c1)CC2 [Example 16, 4-fluoro-3-nitrooxymethyl-N-[(7S)-1,2,3-trimethoxy-10-methylsulfanyl-9-oxo-5,6,7,9-tetrahydro-benzo[a]heptalen-7-yl]-benzamide]	1	1	1	1.6	
COc1cc2c(c(OC)c1OC)-c1ccc(SC)c(=O)cc1[C@@H](NC(=O)c1cccc(OC(=O)c3cccc(CO[N+](=O)[O-])c3)c1)CC2 [Example 31, 3-nitrooxymethyl-benzoic acid-3-[(7S)-1,2,3-trimethoxy-10-methylsulfanyl-9-oxo-5,6,7,9-tetrahydro-benzo[a]heptalen-7-yl-carbamoyl]-phenylester]	3	0.8	0.9	1.1	
COc1cc2c(c(OC)c1OC)-c1ccc(SC)c(=O)cc1[C@@H](NC(=O)c1ccc(COC(=O)c3cccc(O[N+](=O)[O-])c3)nc1)CC2 [Example 25, 3-nitrooxy-benzoic acid-5-[(7S)-1,2,3-trimethoxy-10-methylsulfanyl-9-oxo-5,6,7,9-tetrahydro-benzo[a]heptalen-7-yl-carbamoyl]-pyridine-2-yl-methylester]	5.4	15	14	8.8	
COc1cc2c(c(OC)c1OC)-c1ccc(OC)c(=O)cc1[C@@H](NC(=O)c1cc(F)cc(CO[N+](=O)[O-])c1)CC2 [Example 40, 3-fluoro-5-nitrooxymethyl-N-[(7S)-1,2,3,10-tetramethoxy-9-oxo-5,6,7,9-tetrahydro-benzo[a]heptalen-7-yl]-benzamide]	45.6	24.3	60.7	43.9	10.5
COc1cc2c(c(OC)c1OC)-c1ccc(SC)c(=O)cc1[C@@H](NC(=O)c1cc(CO[N+](=O)[O-])cc(CO[N+](=O)[O-])c1)CC2 [Example 19, 3,5-bis-nitrooxymethyl-N-[(7S)-1,2,3-trimethoxy-10-methylsulfanyl-9-oxo-5,6,7,9-tetrahydro-benzo[a]heptalen-7-yl]-benzamide]	34.8	10.1	31	23.5	8.2
COc1cc2c(c(OC)c1OC)-c1ccc(SC)c(=O)cc1[C@@H](NC(=O)c1ccc(CO[N+](=O)[O-])nc1)CC2 [Example 1, 6-nitrooxymethyl-N-[(7S)-1,2,3-trimethoxy-10-methylsulfanyl-9-oxo-5,6,7,9-tetrahydro-benzo[a]heptalen-7-yl]-nicotineamide]	1	0.6	0.4	1.8	
COc1cc2c(c(OC)c1OC)-c1ccc(SC)c(=O)cc1[C@@H](NC(=O)c1cc(O)cc(CO[N+](=O)[O-])c1)CC2 [Example 18, 3-hydroxy-5-nitrooxymethyl-N-[(7S)-1,2,3-trimethoxy-10-methylsulfanyl-9-oxo-5,6,7,9-tetrahydro-benzo[a]heptalen-7-yl]-benzamide]	3.8	5.3	1	8.1	
COc1cc2c(c(OC)c1OC)-c1ccc(SC)c(=O)cc1[C@@H](NC(=O)c1cccc(CSN=O)c1)CC2 [Example 38, 3-nitrosothiomethyl-N-[(7S)-1,2,3-trimethoxy-10-methylsulfanyl-9-oxo-5,6,7,9-tetrahydro-benzo[a]heptalen-7-yl]-benzamide]	4.1	3	3.3	2.4	
COc1cc2c(c(OC)c1OC)-c1ccc(SC)c(=O)cc1[C@@H](NC(=O)c1ccc(CO[N+](=O)[O-])o1)CC2 [Example 2, 5-nitrooxymethyl-furan-2-carboxylic acid-[(7S)-1,2,3-trimethoxy-10-methylsulfanyl-9-oxo-5,6,7,9-tetrahydro-benzo[a]heptalen-7-yl]-amide]	9.3	2.3	5.4	15.8	2.9
COc1cc2c(c(OC)c1OC)-c1ccc(SC)c(=O)cc1[C@@H](NC(=O)c1cccc(COC(=O)c3cccc(CO[N+](=O)[O-])c3)c1)CC2 [Example 33]	6.6	1	2.9	3.8	
COc1cc2c(c(OC)c1OC)-c1ccc(SC)c(=O)cc1[C@@H](NC(=O)c1ccccc1OC(=O)CCCO[N+](=O)[O-])CC2 [Example 30, 4-nitrooxybutyric acid-2-[(7S)-1,2,3-trimethoxy-10-methylsulfanyl-9-oxo-5,6,7,9-tetrahydro-benzo[a]heptalen-7-yl-carbamoyl]-phenylester]	8.2	5.2	3.6	3.6	
COc1cc2c(c(OC)c1OC)-c1ccc(SC)c(=O)cc1[C@@H](NC(=O)c1cccc(COC(=O)CCCO[N+](=O)[O-])n1)CC2 [Example 28, 4-nitrooxybutyric acid-6-[(7S)-1,2,3-trimethoxy-10-methylsulfanyl-9-oxo-5,6,7,9-tetrahydro-benzo[a]heptalen-7-yl-carbamoyl]-pyridine-2-yl-methylester]	15	3	4	6	
COc1cc2c(c(OC)c1OC)-c1ccc(SC)c(=O)cc1[C@@H](NC(=O)c1cccc(CO[N+](=O)[O-])n1)CC2 [Example 5, 6-nitrooxymethyl-pyridine-2-carboxylic acid-[(7S)-1,2,3-trimethoxy-10-methylsulfanyl-9-oxo-5,6,7,9-tetrahydro-benzo[a]heptalen-7-yl]-amide]	1	4.4	3.1	1	
COc1cc2c(c(OC)c1OC)-c1ccc(SC)c(=O)cc1[C@@H](NC(=O)c1ccc(COC(=O)CCCO[N+](=O)[O-])nc1)CC2 [Example 26, 4-nitrooxybutyric acid-5-[(7S)-1,2,3-trimethoxy-10-methylsulfanyl-9-oxo-5,6,7,9-tetrahydro-benzo[a]heptalen-7-yl-carbamoyl]-pyridine-2-yl-methylester]	> 50	> 50	47	21	
COc1cc2c(c(OC)c1OC)-c1ccc(SC)c(=O)cc1[C@@H](NC(=O)c1cccc(OC(=O)CCCO[N+](=O)[O-])c1)CC2 [Example 32, 4-nitrooxybutyric acid-3-[(7S)-1,2,3-trimethoxy-10-methylsulfanyl-9-oxo-5,6,7,9-tetrahydro-benzo[a]heptalen-7-yl-carbamoyl]-phenylester]	1	0.08	0.05	6.2	
COc1cc2c(c(OC)c1OC)-c1ccc(SC)c(=O)cc1[C@@H](NC(=O)c1cccc(CON=O)c1)CC2 [Example 36, 3-nitrosooxymethyl-N-[(7S)-1,2,3-trimethoxy-10-methylsulfanyl-9-oxo-5,6,7,9-tetrahydro-benzo[a]heptalen-7-yl]-benzamide]	1.1	0.7	0.1	2.9	
